Measured values taken from US6613883B1, “Screening assays for compounds that cause apoptosis and related compounds” (The United States of America as represented by the …, priority 1994, dated 2003).
“Also recorded” adds a separate entry of the source.

Experiments:
[1] = molecular target: T1, binding of p53 to XPB (Homo sapiens, UniProt P04637); experiment: Competitive inhibition by peptides of XPB binding to GST-p53-WT; details: peptide preincubated with GST-p53-WT 30 min on ice, 12-596 nM
T1 construct: was used for in vitro translation of full length XPB protein; made in house; host or cells: GST-p53-WT: Escherichia coli; XPB: cell-free in vitro transcription/translation (Promega)
Experimental: FIG. 4. Peptides corresponding to helicase motif III of XPB and the C-terminus of p53 prevent XPB from binding to GST-p53. Four different synthetic peptides were preincubated with 2 μg GST-p53WT for 30 minutes on ice before the addition of ^35S-labeled, in vitro-translated XPB for 60 min at RT. Peptide #464 corresponds to residues 464-478 of XPB (lanes 2-4; 12, 120, and 596 nM), peptide #479 corresponds to residues 479-493 of XPB (lanes 5-7; 12, 116, and 578 nM), peptide #99 corresponds to residues 100-115 of HBX (lanes 8-9; 111 and 554 nM), and peptide #p53cp corresponds to residues 367-387 of p53 (lanes 11-12; 85 and 424 nM).
(§1) The helicase motif III in XPB and the C-terminal region of p53 are both important regions that are involved in the binding of p53 to XPB. […] Incubation conditions for the binding assays and analysis of binding was then carried out as described in Example 2 herein.

[2] = test system: normal primary human fibroblasts (C5RO); experiment: Apoptosis after microinjection of p53 expression vectors; assay type: cell-based; details: for effect of coinjected mutant p53 on induction of apoptosis by wt p53: expression vectors for wt and mutant p53 coinjected into normal human fibroblasts; for % apoptotic cells: normal fibroblasts (C5RO), of p53 positive cells; for % apoptotic cells / p53 localization (% cells) both / p53 localization (% cells) cytoplasmic / p53 localization (% cells) nuclei: 24 hr after microinjection; for p53 localization (% cells) both / p53 localization (% cells) cytoplasmic / p53 localization (% cells) nuclei: normal fibroblasts
[3] = molecular target: T2, XPB helicase within BTF2-TFIIH (Homo sapiens, UniProt P19447); experiment: BTF2-TFIIH helicase assay, 3'→5' (XPB); assay type: biochemical; details: 6, 18, 120 ng wild-type p53 or 7, 21, 140 ng p53-273H
T2 construct: XPD and XPB helicase activity within the native BTF2-TFIIH complex; endogenous in cells; host or cells: HeLa cell nuclear extract (HAP fraction)

[4] = molecular target: T3, XPD helicase within BTF2-TFIIH (Homo sapiens, UniProt P18074); experiment: BTF2-TFIIH helicase assay, 5'→3' (XPD); assay type: biochemical; details: 6, 18, 120 ng wild-type p53 or 7, 21, 140 ng p53-273H
T3 construct: XPD and XPB helicase activity within the native BTF2-TFIIH complex; endogenous in cells; host or cells: HeLa cell nuclear extract (HAP fraction)

[5] = test system: XPB binding to mutant p53; experiment: Peptide inhibition of XPB binding to mutant p53; design: species or system human; details: data not shown
Experimental: as §1

[6] = molecular target: T4, wild type p53 (Homo sapiens, UniProt P04637); experiment: Binding of XPB proteins with deletion mutations to wild type p53; details: for binding of in vitro-translated XPB deletion mutant to GST-p53-WT: compared with wild-type XPB
T4 construct: made in house; host or cells: Escherichia coli
Experimental: FIGS. 3A, 3B and 3C. p53 binds to XPB helicase motifs Ia, II and III. […] Twenty percent of the original input was loaded in parallel as the references (lanes 1-3). B. In vitro-translated wild-type p53 protein was mixed with GSH-beads loaded with 4 μg of GST (lane 2), 2 μg of GST-XPB (WT) (lane 3), or 2 μg of GST-XPB (truncated XPB with 80-480 residues) (lane 4). Bound proteins were analyzed on SDS/PAGE. The original input (100%) was included as a reference (lane 1). C. Schematic representation of the full-length or the truncated XPB proteins used in binding assays. Black boxes in the bars are the putative helicase motifs conserved across the helicase superfamily. The small open bar from residues 354 to 496 covers the region which binds p53, with the closed bar in the right side covering motif III representing the higher affinity binding site. Helicase motif 1, residues 337-351; motif Ia, residues 361-374; motif II, residues 434-446; motif III, residues 462-480; motif IV, residues 576-592; motif V, residues 601-621; motif VI, residues 630-649.
The binding assays were done in 500 μl IP buffer (50 mM Tris-HCl, pH8.0/120 mM NaCl/0.5% Nonidet P-40) containing the ^35S-labeled, in vitro translated proteins and GST fusion proteins loaded on GSH-beads at RT for 60 min. After washing five times with IP buffer, the bound proteins were released by boiling the beads in Laemmli buffer for 5 min, separated by SDS-PAGE, and visualized by fluolorography, as described in Wang, X. W., et al. (1994) Proc. Natl. Acad. Sci., USA 91:2230-2234.
XPB contains 7 putative helicase motifs (FIG. 3C, black bars) which are conserved among the helicase superfamily and are indispensable for NER activity. […] The XPB mutants were produced a s described in Example 1, herein, and the binding studies with wild type p53 were carried out as described in Example 2, herein.

## 99: non relevant peptide from HBV, residues 100-115 of HBX [compound 99, reference compound]
[1]
  competition of in vitro-translated XPB from GST-p53: failed to do so; also recorded: enhance binding

## 249^Ser: p53 mutant 249Ser, microinjected as CMV expression vector
[2]
  effect of coinjected mutant p53 on induction of apoptosis by wt p53: completely abolished
  % apoptotic cells: 0(34) %
  p53 localization (% cells) both: 17 % cells
  p53 localization (% cells) cytoplasmic: 77 % cells
  p53 localization (% cells) nuclei: 6 % cells

## 273^His: p53 mutated at codon 273 (Arg→His); expression vector or baculovirus-produced protein
[3]
  inhibition of XPB helicase activity of BTF2-TFIIH: No inhibition
[4]
  inhibition of XPD helicase activity of BTF2-TFIIH: No inhibition
[2]
  effect of coinjected mutant p53 on induction of apoptosis by wt p53: completely abolished
  % apoptotic cells: 7(30) %
  p53 localization (% cells) both: 73 % cells
  p53 localization (% cells) cytoplasmic: 0 % cells
  p53 localization (% cells) nuclei: 27 % cells
[2]; listed as 273]^His
  % apoptotic cells: significantly reduced

## 361 to 393: fragment of the c-terminus of wt p53, amino acid residues 361 to 393
[2]; cells and delivery not stated for the fragments
  induction of apoptosis by fragments of the c-terminus of wt p53: can also induce apoptosis

## 479: residues 479 to 493 of XPB (DLNFLIGPKLYEANW) [compound 479, reference compound]
[1]
  competition of in vitro-translated XPB from GST-p53: failed to do so; also recorded: enhance binding

## Peptide #464: amino acid residues 464 to 478 of XPB, helicase motif III region (LGLTATLVREDDKIV)
[1]; listed as #464
  competition of in vitro-translated XPB from GST-p53: efficiently competed; also recorded: capable of inhibiting the binding
[5]
  inhibition of XPB binding to mutant p53: did not inhibit

## Peptide #p53cp: amino acid residues 367-387 of human wild type p53 (SHLKSKKGQSTSRHKKLMFKT)
[1]
  competition of in vitro-translated XPB from GST-p53: competed; also recorded: capable of inhibiting the binding

B1: ΔC496: XPB deletion mutant terminating at residue 496 (helicase motifs IV, V and VI deleted) (protein)
chain: MGKRDRADRDKKKSRKRHYEDEEDDEEDAPGNDPQEAVPSAAGKQVDESGTKVDEYGAKDYRLQMPLKDDHTSRPLWVAPDGHIFLEAFSPVYKYAQDFLVAIAEPVCRPTHVHEYKLTAYSLYAAVSVGLQTSDITEYLRKLSKTGVPDGIMQFIKLCTVSYGKVKLVLKHNRYFVESCHPDVIQHLLQDPVIRECRLRNSEGEATELITETFTSKSAISKTAESSGGPSTSRVTDPQGKSDIPMDLFDFYEQMDKDEEEEEETQTVSFEVKQEMIEELQKRCIHLEYPLLAEYDFRNDSVNPDINIDLKPTAVLRPYQEKSLRKMFGNGRARSGVIVLPCGAGKSLVGVTAACTVRKRCLVLGNSAVSVEQWKAQFKMWSTIDDSQICRFTSDAKDKPIGCSVAISTYSMLGHTTKRSWEAERVMEWLKTQEWGLMILDEVHTIPAKMFRRVLTIVQAHCKLGLTATLVREDDKIVDLNFLIGPKLYEANWMEL
[6]
  binding of in vitro-translated XPB deletion mutant to GST-p53-WT: did not alter the binding

B2: ΔC354: XPB deletion mutant terminating at residue 354 (helicase motifs Ia to VI deleted) (protein)
chain: MGKRDRADRDKKKSRKRHYEDEEDDEEDAPGNDPQEAVPSAAGKQVDESGTKVDEYGAKDYRLQMPLKDDHTSRPLWVAPDGHIFLEAFSPVYKYAQDFLVAIAEPVCRPTHVHEYKLTAYSLYAAVSVGLQTSDITEYLRKLSKTGVPDGIMQFIKLCTVSYGKVKLVLKHNRYFVESCHPDVIQHLLQDPVIRECRLRNSEGEATELITETFTSKSAISKTAESSGGPSTSRVTDPQGKSDIPMDLFDFYEQMDKDEEEEEETQTVSFEVKQEMIEELQKRCIHLEYPLLAEYDFRNDSVNPDINIDLKPTAVLRPYQEKSLRKMFGNGRARSGVIVLPCGAGKSLVGVTAA
[6]
  binding of in vitro-translated XPB deletion mutant to GST-p53-WT: completely abolished the binding

B3: GST-XPB-80/480: GST fused to amino acids 80 to 480 of XPB (protein, UniProt P19447 80-480, looked up, fragment)
chain: PDGHIFLEAFSPVYKYAQDFLVAIAEPVCRPTHVHEYKLTAYSLYAAVSVGLQTSDITEYLRKLSKTGVPDGIMQFIKLCTVSYGKVKLVLKHNRYFVESCHPDVIQHLLQDPVIRECRLRNSEGEATELITETFTSKSAISKTAESSGGPSTSRVTDPQGKSDIPMDLFDFYEQMDKDEEEEEETQTVSFEVKQEMIEELQKRCIHLEYPLLAEYDFRNDSVNPDINIDLKPTAVLRPYQEKSLRKMFGNGRARSGVIVLPCGAGKSLVGVTAACTVRKRCLVLGNSAVSVEQWKAQFKMWSTIDDSQICRFTSDAKDKPIGCSVAISTYSMLGHTTKRSWEAERVMEWLKTQEWGLMILDEVHTIPAKMFRRVLTIVQAHCKLGLTATLVREDDKIVDL
modifications: GST fusion
notes: GST fused to amino acids 80 to 480 of XPB
[6]; GSH-beads loaded with GST-XPB protein
  binding of in vitro-translated human wild-type p53 to GST-XPB protein: significantly less binding
